Patent US11629354B2, “Grain with increased nicotianamine” (The United States of America, as represented by the …, priority 2020, dated 2023)

How the values were obtained:
Type in all cases: in vivo, chicken
[1] = Intraamniotic administration: Fe and Zn concentration in blood serum and liver; conditions: relative to unchelated Fe (Fe) and non-injected groups
Excerpt: (§1) To generate extracts for administration, wheat flours (CE-OsNAS2, hereinafter “biofortified”; and NS, hereinafter “control”) were mixed in dH2O (50 g/L), filtered (600 μm) and centrifuged, and the resulting supernatant was dialyzed (MWCO 12-14 kDa, Medicell International Ltd., London, UK) exhaustively against dH2O (48 hrs). The dialysate was lyophilized, and the resulting powder dissolved in 18MΩ H2O (0.05 g/mL) forming the white wheat flour extracts for intra-amniotic administration. Iron solutions were prepared by combining an Fe standard (1000 μg/mL, 2% HCl, High-Purity Standards, Charleston, S.C., USA) with either 18MΩ H2O (Fe), or 1.6 mM NA (Toronto Research Chemicals Inc., Toronto, Canada) dissolved in 18MΩ H2O (Fe-NA). The Fe-EDTA solution was achieved by combining ferric nitrate (Fe(NO3)3 9H2O, Sigma, St. Louis, Mo., USA) with hydroxyethyl ethylenediamine triacetic acid (H3HEDTA, Sigma, St. Louis, Mo., USA) dissolved in sodium hydroxide (NaOH, Sigma, St. Louis, Mo., USA) to represent an anionic chelate of dissolved NaFeEDTA with final Fe concentration of 77 μM.
Cornish-cross fertile broiler eggs (n=70) were obtained from a commercial hatchery (Moyer's chicks, Quakertown, Pa., USA) and incubated until hatching. All methods were performed in accordance with the relevant guidelines and regulations. […]

intestinal villi = experiment: Intraamniotic administration: intestinal functionality (goblet cell number, villi length and width)
Excerpt: as §1
For intraamniotic administration, eggs (n=40) containing viable embryos were weighed and randomly assigned to seven groups (n≥5) based on weight distribution. At day 17 of incubation, extracts/Fe solutions (1 mL) were injected into the amniotic fluid via a 21-gauge needle for the seven treatment groups as follows: (1) non-injected (NI); (2) 18MΩ H2O (H2O); (3) Fe solution (Fe); (4) Fe-EDTA solution (Fe-EDTA); (5) Fe-NA solution (Fe-NA); (6) Control white flour extract (C WF); (7) Biofortified white flour extract (B WF) and eggs were subsequently incubated for four days until hatch. Chicks were euthanized by CO2 exposure after hatching and all tissues were collected.
Intestinal functionality and short-chain fatty acid (SCFA) analysis. […] Samples were quantified via GC-MS using a TRACE™ 1310 gas chromatograph (Thermo Fisher Scientific, Waltham, Mass., USA) and a TraceGOLD™ TG-WaxMS A column (Thermo Fisher Scientific, Waltham, Mass., USA).

[2] = system: Lactobacillus, Bifidobacterium, Escherichia, and Clostridium; experiment: Intraamniotic administration: cecal microbial population analysis
Excerpt: To generate extracts for administration, wheat flours (CE-OsNAS2, hereinafter “biofortified”; and NS, hereinafter “control”) were mixed in dH2O (50 g/L), filtered (600 μm) and centrifuged, and the resulting supernatant was dialyzed (MWCO 12-14 kDa, Medicell International Ltd., London, UK) exhaustively against dH2O (48 hrs). The dialysate was lyophilized, and the resulting powder dissolved in 18MΩ H2O (0.05 g/mL) forming the white wheat flour extracts for intra-amniotic administration. Iron solutions were prepared by combining an Fe standard (1000 μg/mL, 2% HCl, High-Purity Standards, Charleston, S.C., USA) with either 18MΩ H2O (Fe), or 1.6 mM NA (Toronto Research Chemicals Inc., Toronto, Canada) dissolved in 18MΩ H2O (Fe-NA). […]
Microbial population analysis. Lactobacillus, Bifidobacterium, Escherichia, and Clostridium density in intraamniotic administration treatment groups was determined as follows: in brief, cecal contents were homogenized with phosphate-buffered saline (PBS, 9 ml), centrifuged and the pellet resuspended in ethylenediaminetetraacetic acid (EDTA, 50 mM) and treated (37° C., 45 min) with lysozyme (10 mg/mL, Sigma Aldrich CO., St. Louis, Mo., USA). […]

[3] = relative to other treatment groups

Fe-EDTA
Blood serum Fe concentration [1]: significantly elevated | Intestinal villi width (intestinal villi; relative to all treatment groups): increased significantly | Goblet cell number in intestinal villi (intestinal villi; [3]): decreased significantly | Intestinal villi length (intestinal villi; [3]): increased significantly | abundance of Clostridium in cecum ([2]; relative to C-WF): significantly increased | abundance of Escherichia in cecum ([2]; relative to Fe-NA): significantly increased
